3 molecules from patent US20140194528A1, “USAGE OF SODIUM HOUTTUYFONATE ON INHIBITING IDIOPATHIC PULMONARY FIBROSIS AND BLEOMYCIN INDUCED PULMONARY FIBROSIS” (Hong Kong Baptist University, priority 2013, published 2014) can be followed below.

Data set [1] relates to BLM induced pulmonary fibrosis mice model. Briefly: Bleomycin (BLM) induced pulmonary fibrosis mice model, treatment with SH or PA. The settings on record: for lung inflammatory cell infiltration and collagen deposition (H&E staining): 7th, SH both high (90 mg/kg) and low (45 mg/kg) concentrations (FIG. 2); for lung inflammatory cell infiltration and collagen deposition (H&E staining) / lung/body weight ratio: 14th and 28th day; for lung/body weight ratio: SH oral once a day, p<0.05 / p<0.01 vs BLM group (FIG. 1); for hydroxyproline production in lung tissue: 28th day samples, p<0.05 / p<0.01 vs BLM group (FIG. 3C); for deposition of collagens (Sirius Red staining, polarized light): all sample collection time points (7th, 14th, 28th day), SH 90 and 45 mg/kg (FIG. 3A); for collagen I/III ratio: all time points (FIG. 3B). The data set is classed as in vivo, Kunming mice. Here is the method:
Kunming mice were obtained from Shanghai Experimental Animal Center, Chinese Academy of Sciences. The animals were housed in stainless steel metabolite cages and observed under a 12 hours light-12 hours dark cycle in a well-ventilated room at 23° C±2° C. They were fed with standard pellet food and tap water ad libitum. The study was approved by the Animal Care and Use Committee of Shanghai University of Traditional Chinese Medicine, and was performed in accordance with the National Institute of Health guidelines for the care and handling of animals.
One hundred and twenty mice (male, 8 weeks old, 18-22 g) were randomly divided into the following 5 groups: sham control operation group (Control); BLM treatment group (BLM); prednisone acetate treatment group (BLM+PA); high concentration SH treatment group (BLM+SH High); and low concentration SH treatment group (BLM+SH Low). In the control group, mice received 1 ml/kg 0.9% sterile saline intratracheally under pentobarbital sodium anesthesia. In the BLM group, mice received a single dose of BLM intratracheally (5 mg in 1 ml sterile saline/body weight (kg)). The control and BLM groups received saline (oral, 5 ml/body weight (kg)) once a day for 4 weeks after BLM injection. We selected the doses of SH based on our previous report and small-scale preliminary experiments. We employed two different administration concentrations. SH was administered orally once a day to both the high (90 mg/kg) and low (45 mg/kg) concentration SH groups. On the 7th, 14th or 28th day, the mice were anesthetized with pentobarbital sodium (50 mg/kg) intraperitoneally.
The lungs were immersed in buffered formalin (10%) for 48 h, then embedded in paraffin and sliced (5 μm) and stained with H&E, or Sirius red. Each sample slice was photographed (x200 magnification) under the microscope (Olympus BX51, 167 Japan). All photos were analyzed with the image-Pro Plus 6.3 analyzing software (Media Cybernetics, Bethesda, Md. USA) by computer. Type I and type III collagen accumulation in the interstitial space of the lung was assessed by polarized light microscopy. Type I or type III collagen volume fraction (CVF) was also determined with Image-Pro 6.3 analyzing software.
All values were expressed as mean±standard deviation (SD). Statistical analysis was performed by one-way analysis of variance for multiple comparisons, followed by Student-Newman-Keuls test to evaluate the difference between two groups. Values of p<0.05 were considered statistically significant for all analyses.

The next data set relates to mice lung. Briefly: Small-scale preliminary experiments with two dosages of BLM in mice. The class given is in vivo. As to the method:
Two different dosages of BLM (2.5 mg/kg, 5mg/kg) were given to 10 mice (5 mice for each group) for small-scale preliminary experiments. On the 7th and 14th day, the mice were anesthetized with pentobarbital sodium (50 mg/kg) intraperitoneally. […]. […] Therefore, 5 mg of BLM in 2.5 ml sterile saline/body weight (kg) was used to generate BLM induced pulmonary fibrosis mice model. In the BLM group, mice received a single dose of BLM. After the instillation of saline or BLM, the lung/body weight ratio were obtained on the 7th, 14th, and 28th day. […] Both PA and SH reduced the lung/body weight ratio on the 14th and 28th day in BLM mice (*p<0.05, **p<0.01). Meanwhile, there was no significant difference in body weight among all groups.

Take `CC(=O)OCC(=O)[C@@]1(O)CC[C@H]2[C@@H]3CCC4=CC(=O)C=C[C@]4(C)[C@H]3C(=O)C[C@@]21C` [PA, prednisone acetate]: in data set [1] (BLM mice), the “lung inflammatory cell infiltration and collagen deposition (H&E staining)” value is listed as “reduced”; the lung/body weight ratio result was “reduced”; the “hydroxyproline production in lung tissue” value is given as “suppressed”; the “deposition of collagens (Sirius Red staining, polarized light)” value is listed as “reduced”. Moreover, the “collagen I/III ratio” value in data set [1] (BLM+PH group) is listed as “low collagen I/III ratios”.
For `CCCCCCCCCC(=O)CC(O)S(=O)(=O)O` (stereo not shown) [SH, Sodium Houttuyfonate], in data set [1] (BLM mice), the “cytokine (IL-1β, IL-6 and TNF-α) production in lung tissues” value is listed as “inhibit”; the “lung inflammatory cell infiltration and collagen deposition (H&E staining)” value is “reduced”; the lung/body weight ratio entry was “reduced”; the “hydroxyproline production in lung tissue” value is listed as “suppressed”. Also, in data set [1] (BLM mice), the “deposition of collagens (Sirius Red staining, polarized light)” value is “reduced”. In data set [1] (BLM mice, higher dose of SH), the body weight entry is “without adversely affecting the body weight”. Further, the “collagen I/III ratio” value in data set [1] (BLM+SH High (90 mg/kg)) is given as “low collagen I/III ratios”. For the same molecule, in data set [1] (BLM+SH Low (45 mg/kg)), the “collagen I/III ratio” value is recorded as “low collagen I/III ratios”.
As to Bleomycin [BLM], the “pathological change of lung” value in the data set on mice lung (BLM 2.5 mg/kg, 7th and 14th day (data not shown)) is reported as “not significant”. In addition, the death entry in the data set on mice lung (BLM 5 mg/kg) is listed as “no death”. For the same molecule, in the data set on mice lung (BLM 5 mg/kg, 7th and 14th day), the “lung tissue histological examination” value is listed as “showed the fibrotic morphology”.
